Measurements reported in patent US10022362B2, “Anti-allergy benzocycloheptathiophene derivatives” (FUJIAN MINDONG REJUVENATION PHARMACEUTICAL CO., LTD., priority 2011, dated 2018).

Assays:
[1] = system: Mouse bone marrow derived eosinophils; experiment: Inhibition of eosinophil proliferation in vitro (3H-thymidine incorporation); assay type: cell-based; details: for thymidine incorporation (eosinophil proliferation): eosinophils cultured with IL-5 (50 ng/ml), treated 1 hour, 3H-thymidine pulse 18 hours, CPM
Experimental: Mouse bone marrow derived eosinophils (1×10^5 cells/well) were seeded in 96 well plates in triplicate and were cultured with IL-5 (50 ng/ml). Eosinophils were treated with 4-[1-(5-methyl-pyridin-3-ylmethyl)piperidin-4-ylidene]-4,9-dihydro-1-thia-benzo[f]azulen-10-one (Compound A) or ketotifen for 1 hour. Cells were then pulsed with 0.5 μCi of ^3H-thymidine for 18 hours. Cells were harvested to glass fiber paper using a suction manifold and washed extensively to eliminate unincorporated thymidine. Fiber paper was dried and added to vials with 2.5 ml of scintillation fluid (Ecolite). Thymidine incorporation was measured on a Wallac beta counter.
The incorporation of ^3H-thymidine (eosinophil proliferation) was quantified by liquid scintillation counting (CPM).

[2] = system: Mice passively sensitized with anti-DNP IgE mAb, DNFB challenge; experiment: Prophylactic effects: IgE-mediated late phase cutaneous reactions (ear and foot swelling); assay type: in vivo; details: 1 mg/kg orally twice (before IgE injection and before DNFB challenge), thickness measured after 24 h, FIG. 1B
Experimental: Mice were given 4-[1-(5-methyl-pyridin-3-ylmethyl)piperidin-4-ylidene]-4,9-dihydro-1-thia-benzo[f]azulen-10-one (1 mg/kg) or ketotifen (1 mg/kg) orally twice as per the schedule dosing regimen provided in FIG. 1A as indicated by the numbered dose in a circle. The first dose (indicated by a circled number 1) was given on day 1 before IgE injection and a 2nd dose (indicated by a circled number 2) was given on day 2 before dinitrofluorobenzene (DNFB, as an allergen) challenge. Mice were passively sensitized by i.v. injection of 2 μg anti-DNP IgE mAb (Sigma). After 24 h, a cutaneous reaction was elicited by the application of 20 μl of DNFB (0.3% wt/vol, Sigma) in acetone-olive oil (4:1) to both sides of the left hind paw or left ear, and 20 μl of acetone-olive oil to the right hind paw or right ear as a control. The thickness of foot pad or ear was measured using a digital micrometer after 24 h. The thickness of the right ear or right hind paw (treated with acetone-olive oil only) was used as baseline values. The DNFB-induced increment of tissue thickness was expressed as the percentage of the baseline values.

[3] = system: Mice sensitized with anti-DNP IgE mAb, DNP-BSA challenge; experiment: Prophylactic effects: IgE-mediated passive cutaneous anaphylaxis (Evan's blue dye leakage); assay type: in vivo
Experimental: Mice were given 4-[1-(5-methyl-pyridin-3-ylmethyl)piperidin-4-ylidene]-4,9-dihydro-1-thia-benzo[f]azulen-10-one (1 mg/kg) or ketotifen (1 mg/kg) orally as per dosing schedule shown in FIG. 2A. Subsequently, mice were sensitized by intradermal injection of 20 ng antidinitrophenyl (DNP) IgE mAb (Sigma) into left ears, while right ear received saline as a control. After 24 h, mice were challenged by i.v. injection of 100 μg of DNP-Bovine Serum Albumin (BSA) (as an allergen) in 200 μl Evan's blue dye (1% wt/vol, Sigma). Thirty min later, ear punch (8 mm) was collected in 300 μl of formamide and incubated at 80° C. for 2 h in water bath to extract Evan's blue dye. The absorbance was determined at 620 nm. […] Granule-associated mediators such as histamine stimulate endothelium and blood vessel smooth muscle cells leading to increased vascular permeability.

[4] = system: Mouse bone marrow derived mast cells (BMMCs); experiment: Allergen-induced cytokine IL-6 production by mast cells in vitro; assay type: cell-based; details: FIG. 4
Experimental: Mouse bone marrow derived mast cells (BMMCs) were resuspended in fresh complete medium supplemented with TIB141-conditioned medium enriched in IgE directed against trinitrophenyl (TNP) at a ratio of 3:1. BMMCs were typically sensitized at 0.5 million/ml. Following sensitization, BMMCs were washed extensively with RPMI 1640 supplemented with 10% FBS alone. BMMCs were then treated with 4-[1-(5-methyl-pyridin-3-ylmethyl)piperidin-4-ylidene]-4,9-dihydro-1-thia-benzo[f]azulen-10-one or ketotifen at the concentration of […], 1, 10 or 100 μM for 1 hour and subsequently stimulated with antigen TNP-BSA (10 ng/ml) for 6 h. Cytokine levels in the cell free supernatant were determined by ELISA.

[5] = system: Mice passively sensitized with anti-DNP IgE mAb, DNFB application; experiment: Therapeutic effects: IgE-mediated late phase cutaneous reactions (ear and foot swelling); assay type: in vivo; details: FIG. 3B
Experimental: After 24 h, a cutaneous reaction was elicited by the application of 20 μL of DNFB (0.3% wt/vol, Sigma) in acetone-olive oil (4:1) to both sides of the left hind paw or left ear, and 20 μl of acetone-olive oil to the right hind paw or right ear as a control as shown in FIG. 3A. Three hours after DNFB application, mice were given 4-[1-(5-methyl-pyridin-3-ylmethyl)piperidin-4-ylidene]-4,9-dihydro-1-thia-benzo[f]azulen-10-one (1 mg/kg, p.o.), ketotifen (1 mg/kg, p.o.) or saline as control as indicated in FIG. 3A by the circled number “1”. The thickness of foot pad or ear was measured using a digital micrometer after 24 h of DNFB application. The weight of hind paw or ear punch (5 mm) was also determined. The thickness and weight of the right ear or right hind paw (treated with acetone-olive oil only) were used as baseline values. The DNFB-induced increment of tissue thickness was expressed as the percentage of the baseline values.

[6] = 1 mg/kg p.o. each, three hours after DNFB application

SMILES	thymidine incorporation (eosinophil proliferation) [1]	inhibition on eosinophil proliferation, compared with ketotifen ([1]; p<0.01, n=3 experiments, FIG. 5)	allergen DNFB-induced ear and foot swelling [2]	allergen (DNP)-induced Evan's blue dye leakage ([3]; 1 mg/kg orally before sensitization, compared to the vehicle control, FIG. 2B)	time after oral administration at which inhibitory effects on Evan's blue dye leakage and tissue swelling were observed ([3]; 1 mg/kg orally, suggesting long-lasting effects)	cytokine IL-6 production by mast cells ([4]; BMMCs treated at 01, 1, 10 or 100 μM for 1 hour, then TNP-BSA (10 ng/ml) for 6 h, ELISA)	reduction of IL-6 production by mast cells, compared with ketotifen ([4]; equivalent concentrations (01, 1, 10 or 100 μM))	block of swelling and weight increase of ear and feet, compared with ketotifen [5, 6]	foot weight, activity compared with ketotifen [5, 6]	DNP-induced swelling and increase the weight of the ear and the feet ([5]; 1 mg/kg p.o. three hours after DNFB application, measured 24 h after DNFB application)
Cc1cncc(CN2CCC(=C3c4ccccc4CC(=O)c4sccc43)CC2)c1 [Compound A, 4-[1-(5-methyl-pyridin-3-ylmethyl)-piperidin-4-ylidene]-4,9-dihydro-1-thia-benzo[f]azulen-10-one]	dose-dependently reduced	significantly stronger inhibition	strongly reduced	strongly reduced	24 h	significantly reduce	even more effective than ketotifen at some of the equivalent concentrations used	comparable to ketotifen	surpassing the activity of ketotifen	significantly block
CN1CCC(=C2c3ccccc3CC(=O)c3sccc32)CC1 [ketotifen, reference compound]	dose-dependently reduced									
